Laboratory results: patent US20220177819A1, “MICROFLUIDIC SYSTEM FOR INTRACELLULAR DELIVERY OF MATERIALS AND METHOD THEREFOR” (MxT BIOTECH, priority 2019, published 2022)

System: MDA-MB-231 cells
Assay: DOX cytotoxicity after delivery of DOX-loaded MSNs, trypan blue exclusion
Type: cell-based
Conditions: DOX loaded into MSNs delivered by the microfluidic system, after 6 hours
Experimental: In the experiment, doxorubicin (DOX), an anticancer drug, was loaded into MSNs and the MSNs were delivered into MDA-MB-231 cells.
Referring to FIG. 31, DOX cytotoxicity to MDA-MB-231 cells was measured by the trypan blue exclusion method, and it can be seen that approximately 85% of cancer cells were killed after 6 hours.

## COc1cccc2c1C(=O)c1c(O)c3c(c(O)c1C2=O)C[C@@](O)(C(=O)CO)C[C@@H]3O[C@H]1C[C@H](N)[C@H](O)[C@H](C)O1 [DOX, doxorubicin]
  cancer cells killed: approximately 85%
